Source: patent US5089479A, “Adhesion of Mycoplasma pneumoniae and Mycoplasma hominus to sulfatide” (priority 1988, dated 1992)
Entries after “also recorded” stand apart in the source; their conditions may differ. Structures can show the parent of a compound that is named as a salt.

Columns and labels:
M. pneumoniae [1] = test: Mycoplasma overlay assay: binding of [3H]-M. pneumoniae to glycolipids on thin layer chromatograms; set-up: species or system Mycoplasma pneumoniae strain M129; details: for binding of M. pneumoniae to glycolipid (in words): thin layer chromatogram overlay; for Binding (ability to bind M. pneumoniae): Table I, class by amount of lipid bound
Procedure: (§1) Virulent M. pneumoniae strain M129, passage 5-15, were grown and metabolically labelled with [^3 H]palmitic acid, 12-17 Ci/mole, as described by Chandler et al. in Infect. Immun. 37: 942, 1982. The organisms were passed four times through a 26 gauge needle and suspended to approximately 10^7 cpm/ml of degassed RPMI 1640 medium containing 1% bovine serum albumin and 25 mM HEPES, pH 7.3.
M. pneumoniae were bound to glycolipids separated on thin-layer chromatograms as described in detail for other bacteria by Krivan et al., Proc. Natl. Acad. Sci. 85: 6157-6161, 1988, and Krivan et al., Arch. Biochem. Biophys. 260:493-496, 1988. Briefly, glycolipids were separated by thin-layer chromatography on aluminum-backed silica gel high-performance plates developed with chlooform:methanol:0.25% CaCl2 in water (60:35:8). After chromatography, the plates were coated with 0.1% polyisobutylmethacrylate, soaked in 0.05 M Tris-HCl, pH 7.6, containing […] sodium chloride, 5 mM CaCl2, 0.2 mM phenylmethane-sulfonyl fluoride, and 1% bovine serum albumin (TBS-BSA) and incubated for three hours at 25° C. with 60 μl/cm^2 of [^3 H]-labelled M. pneumoniae, approximately 10^7 cpm/ml of RPMI-BSA. The plates were gently washed five times in 0.01 M sodium phosphate, pH 7.2, containing 0.15 M sodium chloride (PBS) to remove unbound organisms, dried, and exposed for 24 hours to Ultrofilm ^3 H (2208-190) high speed film.
To obtain the results shown in FIG. 1, glycolipids were chromatographed on aluminum-backed silica gel HPTLC plates developed in chloroform/methanol/0.25% CaCl2 in water, 60:35:8. The plates were coated with plastic, soaked in Tris-BSA, and incubated for three hours at 25° C. with [^3 H]-palmitate-labelled M. pneumoniae suspended in RPMI 1640 containing 1% BSA and 25 mM HEPES, pH 7.3, as described above (Panel A), or sprayed with orcinol reagent to identify glycolipids (Panel B). Lane a, acidic glycolipid standards sulfatide (0.5 μg), GM3 (2 μg), GM2 (2 μg), GD1a (2 μg), GD1b (2 μg), GT1b (2 μg); lane b, neutral standards galactosyl ceramide (4 μg), lactosylceramide (4 μg), globotriaosylceramide (2 μg), c2(0.5 μg). and c3 (o.1 μg); lane d, seminolipid (2 μg); lane e, cholesterol 3 -sulfate (2 μg); lane f, human trachea acidic glycolipids from 100 mg wet weight […]; lane h, α2-3sialylparagloboside (2 μg); lane 1, I-active monosialylganglioside from bovine erythrocytes (2 μg).

M. pneumoniae [2] = test: Solid-phase binding of [3H]-M. pneumoniae to purified glycolipids immobilized in microtiter plates; set-up: species or system Mycoplasma pneumoniae strain M129; details: microtiter plate; up to 10 μg per well
Procedure: as §1
(§2) The binding of M. pneumoniae to purified glycolipids immobilized in microtiter plates was measured as described by Krivan et al. in Proc. Natl. Acad. Sci., op. cit. Purified glycolipids were serially diluted in 25 μl of methanol containing 0.1 μg each of the auxiliary lipids cholesterol and phosphatidylcholine. After the solutions were dried by evaporation, the wells were filled with TBS-BSA, emptied after one hour, rinsed with RPMI-BSA, and incubated with 25 μl of [^3 H]-M. pneumoniae, approximately 10^7 cpm/ml RPMI-BSA. After incubation for two hours at 37° C., unless otherwise stated, the wells were washed five times with saline and bound M. pneumoniae was quantified by scintillation counting in Aquasol. For inhibition studies, various polysaccharides were serially diluted in […] of [^3 H]-M. pneumoniae.
To obtain the results shown in FIG. 2, lipids in […] each of the auxiliary lipids cholesterol and phosphatidylcholine were evaporated in flat bottom wells of polyvinylchloride microtiter plates. The wells were blocked with 1% albumin for one hour, washed twice with RPMI-BSA, and incubated at 25° C. with 25 μl of [^3 H]-M. pneumoniae, approximately […]. After two hours, the wells were washed five times with saline, cut from the plate, and bound radioactivity was quantified in a scintillation counter. In control experiments, organisms were incubated with auxiliary lipids only to correct for nonspecific binding, typically <1% of the total radioactivity added. M. pneumoniae binding was determined in RPMI-BSA for sulfatide ( .circle. ), lactosylceramide, paragloboside, and cholesterol sulfate, ceramide trihexoside, globoside, GM1, GM2, or GM3 ( .largecircle.).
Binding of [^3 H]-M. pneumoniae was determined in RPMI-BSA for two hours at 4° C., 25° C. ( .circle. ), 37° C., and at 37° C. in BSA without RPMI (Δ).

M. pneumoniae [3] = test: M. pneumoniae adhesion to immobilized glycoproteins adsorbed on plastic; assay type: binding, Mycoplasma pneumoniae strain M129; details: for M. pneumoniae adhesion to immobilized glycoprotein (in words): adsorbed on plastic; for amount of glycoprotein coated that promotes adhesion: coated wells; for Relative binding activity: relative to fetuin = 1.0, from amount for half maximal binding, mean of 2 or 3 experiments
Procedure: Glycoproteins dissolved in 0.01 M sodium phosphate buffer, pH 7.4, containing 150 mM NaCl, 1 mM CaCl2, and 0.01% NaN3 were adsorbed onto plastic polyvinylchloride […] microtiter plates by incubation for 16 hours at 4° C. The unbound proteins were removed, and the wells were filled with tris-BSA and incubated for 30 minutes at room temperature. The wells were rinsed with RPMI1640 containing 25 mM HEPES, pH 7.3, and 1% bovine serum albumin. M. pneumoniae strain M129 labelled with [^3 H]-palmitate were dispersed in RPMI-BSA by passing four times through a 26 gauge needle, and 50 μl of the suspension was applied to the wells. After incubation for 60 minutes at 37° C., the wells were washed five times with saline and the labelled M. pneumoniae bound to the proteins were quantified by scintillation counting in Aquasol. […]

[4] = tested on: M. pneumoniae binding to sulfatide; test: Inhibition of M. pneumoniae binding to sulfatide adsorbed on plastic; set-up: species or system Mycoplasma pneumoniae strain M129; details: for inhibition of binding to sulfatide at 100 μg/ml (in words): sulfatide in microtiter plates
Procedure: as §1, §2
To obtain the results shown in FIG. 4, polysaccharides were serially diluted in 25 μl of RPMI-BSA in microtiter wells previously coated with 1 μg of purified sulfatide. Binding was determined after incubation of two hours at 37° C. with 25 μl of [^3 H]-M. pneumoniae with the indicated concentration of dextran ( .circle. ) or dextran sulfate.

Row | Compound | binding of M. pneumoniae to glycolipid (in words) (M. pneumoniae [1]) | Binding (ability to bind M. pneumoniae) (M. pneumoniae [1]) | also measured
1 | CC(C)CCC[C@@H](C)[C@H]1CC[C@H]2[C@@H]3CC=C4C[C@@H](OS(=O)(=O)O)CC[C@]4(C)[C@H]3CC[C@]12C [cholesterol sulfate, cholesterol 3 -sulfate] | does not bind | – | binding of M. pneumoniae to immobilized lipid (in words) (M. pneumoniae [2]): no binding was detected
2 | Alpha2-3-sialylparagloboside (NeuGc) | – | - (no binding to 4 μg of lipid) | –
3 | Asialo GM1 | – | - (no binding to 4 μg of lipid) | –
4 | Bovine Fetuin: major protein in fetal calf serum | – | – | M. pneumoniae adhesion to immobilized glycoprotein (in words) (M. pneumoniae [3]): promote dose-dependent and saturable adhesion; amount of glycoprotein coated that promotes adhesion (M. pneumoniae [3]): less than 10 ng; Relative binding activity (M. pneumoniae [3]): 1.0
5 | Bovine serum Albumin: protein | – | – | Relative binding activity (M. pneumoniae [3]): < 0.01
6 | GD1^b | No binding was detected | - (no binding to 4 μg of lipid) | –
7 | GD1a | No binding was detected | - (no binding to 4 μg of lipid) | –
8 | GT1b | No binding was detected | - (no binding to 4 μg of lipid) | –
9 | Galactosyl ceramide-I6-sulfate [Sulfatide Gal(6SO4)β11Cer] | – | +++ (positive binding to less than 0.5 μg) | binding of M. pneumoniae to glycolipid (in words) (M. pneumoniae [1]; listed as 6-sulfate isomer): does not discriminate between galactosyl ceramide I^3 -sulfate and its unnatural 6-sulfate isomer; binding of M. pneumoniae to glycolipid (in words) (M. pneumoniae [1]; listed as isomer of sulfatide in which the terminal sulfate is linked to the 6-position of): bound
10 | Human Transferrin: protein | – | – | M. pneumoniae adhesion to immobilized glycoprotein (in words) (M. pneumoniae [3]): no binding of M. pneumoniae was detected; Relative binding activity (M. pneumoniae [3]): < 0.01
11 | Human platelet thrombospondin: adhesive glycoprotein | – | – | M. pneumoniae adhesion to immobilized glycoprotein (in words) (M. pneumoniae [3]): strongly promote adhesion; amount of glycoprotein coated that promotes adhesion (M. pneumoniae [3]): less than 10 ng; Relative binding activity (M. pneumoniae [3]): 0.7
12 | IV^3 -[3'SO3 GlcA]- nLcOse4Cer [SO4 -Glucuronosylparagloboside] | does not bind | - (no binding to 4 μg of lipid) | –
13 | IV^3 GalnLcOse4Cer [α-Galactosylparagloboside] | – | + (2-4 μg) | binding of M. pneumoniae to glycolipid (in words) (M. pneumoniae [1]; listed as o-galactosylparagloboside): weakly
14 | Lacto-N-triaosylceramide [Lacto- --N-triaosylcer] | weakly | – | –
15 | Lactoisooctaosylceramide [I-active Lacto- isooctaosylcer] | – | - (no binding to 4 μg of lipid) | –
16 | Lactosylceramide [Lactosylcer (CDH)] | weakly | ++ (0.5 to 2 μg) | binding of M. pneumoniae to glycolipid (in words) (M. pneumoniae [1]; listed as lactosylderamide): binds to high amounts; binding of M. pneumoniae to immobilized lipid (in words) (M. pneumoniae [2]): bound weakly
17 | Lactosylceramide-II^3 -sulfate [Lactosylsulfatide] | – | +++ (positive binding to less than 0.5 μg) | binding of M. pneumoniae to glycolipid (in words) (M. pneumoniae [1]; listed as lactosyl sulfatide): bound; binding of M. pneumoniae to glycolipid (in words) (M. pneumoniae [1]; listed as lactosylsulfatide): bound strongly
18 | Paragloboside | weakly | + (2-4 μg) | binding of M. pneumoniae to immobilized lipid (in words) (M. pneumoniae [2]): bound weakly
19 | chondroitin sulfate | – | – | inhibition of binding to sulfatide at 100 μg/ml (in words) [4]: did not inhibit binding
20 | colominic acid | – | – | inhibition of binding to sulfatide at 100 μg/ml (in words) [4]: did not inhibit binding
21 | dextran | – | – | inhibition of binding to sulfatide (in words) ([4]; sulfatide adsorbed on plastic): no effect
22 | fucoidin | – | – | inhibition of binding to sulfatide at 100 μg/ml (in words) [4]: did not inhibit binding
23 | glucosylceramide [Glucosylcer (CMH)] | weakly | + (2-4 μg) | –
24 | heparin | – | – | inhibition of binding to sulfatide at 100 μg/ml (in words) [4]: did not inhibit binding
25 | hyaluronate | – | – | inhibition of binding to sulfatide at 100 μg/ml (in words) [4]: did not inhibit binding
26 | sialyllactofucopentaosyl-(III)-ceramide [Sialylneolactofucopenta-osylcer] | – | - (no binding to 4 μg of lipid) | –
27 | α2-3-sialyl-paragloboside (NeuAc) [Sialylparagloboside] | No binding was detected | - (no binding to 4 μg of lipid) | –
28 | α2-3-sialyllactoneohexaosylceramide [Sialylneolacto-hexaoslycer] | – | - (no binding to 4 μg of lipid) | –
29 | α-Ga121actoisooctaosylceramide [I-active Gal2 - lactoisooctaosylcer] | – | - (no binding to 4 μg of lipid) | –
30 | β-galactosylalkylacylglycerol-I^3 -sulfate [Seminolipid] | bound strongly; also recorded: bound | +++ (positive binding to less than 0.5 μg) | –
